Experimental data as given in patent US9497970B2, “Pesticide compounds” (priority 2013, dated 2016).

Key:
Assay type in all cases: in vivo
[1] = test system: Diamond Back Moth (Plutella xylostella); assay: B.1 Diamond Back Moth (Plutella xylostella), cabbage leaf dip; settings: foliar, 500 ppm, 3rd instar larvae on dipped cabbage leaves, 72 hours after treatment, in comparison with untreated controls, read-out: mortality
Description: B.1 Diamond Back Moth (Plutella xylostella)
The active compound was dissolved at the desired concentration in a mixture of 1:1 (vol:vol) distilled water:aceteone. Surfactant (Kinetic HV) was added at a rate of 0.01% (vol/vol). The test solution was prepared at the day of use.
Leaves of cabbage were dipped in test solution and air-dried. Treated leaves were placed in petri dishes lined with moist filter paper and inoculated with ten 3rd instar larvae. Mortality was recorded 72 hours after treatment. Feeding damages were also recorded using a scale of 0-100%.

[2] = test system: Boll Weevil (Anthonomus grandis); assay: B.3 Boll Weevil (Anthonomus grandis), microtiter plate insect diet; settings: 120 h, 800 ppm, sprayed onto insect diet, 5 days, in comparison with untreated controls, read-out: mortality (egg and larval)
Description: B.3 Boll Weevil (Anthonomus grandis)
For evaluating control of boll weevil (Anthonomus grandis) the test unit consisted of 96-well-microtiter plates containing an insect diet and 5-10 A. grandis eggs.
(§1) The compounds were formulated using a solution containing 75% v/v water and 25% v/v DMSO. Different concentrations of formulated compounds were sprayed onto the insect diet at 5 μl, using a custom built micro atomizer, at two replications.
After application, microtiter plates were incubated at about 25±1° C. and about 75±5% relative humidity for 5 days. Egg and larval mortality was then visually assessed.

[3] = test system: Mediterranean Fruitfly (Ceratitis capitata); assay: B.6 Mediterranean Fruitfly (Ceratitis capitata), microtiter plate insect diet; settings: 120 h, 800 ppm, sprayed onto insect diet, 5 days, in comparison with untreated controls, read-out: mortality (egg and larval)
Description: B.6 Mediterranean Fruitfly (Ceratitis capitata)
For evaluating control of Mediterranean fruitfly (Ceratitis capitata) the test unit consisted of microtiter plates containing an insect diet and 50-80 C. capitata eggs.
as §1
(§2) After application, microtiter plates were incubated at about 28±1° C. and about 80±5% relative humidity for 5 days. Egg and larval mortality was then visually assessed.

[4] = test system: Tobacco Budworm (Heliothis virescens); assay: B.7 Tobacco Budworm (Heliothis virescens) I, microtiter plate insect diet; settings: 120 h, 800 ppm, sprayed onto insect diet, 5 days, in comparison with untreated controls, read-out: mortality (egg and larval)
Description: B.7 Tobacco Budworm (Heliothis virescens) I
as §1, with “For evaluating control of tobacco budworm (Heliothis virescens) the test unit consisted of 96-well-microtiter plates containing an insect diet and 15-25 H. virescens eggs. The” for “The”, “at 10” for “at 5”
as §2

[5] = test system: Yellow Fever Mosquito (Aedes aegypti); assay: whole plant or invertebrate; settings: 48 h, freshly hatched larvae in tap water, 2 days, in comparison with untreated controls, read-out: mortality (larval)
Description: B.11 Yellow Fever Mosquito (Aedes aegypti)
For evaluating control of yellow fever mosquito (Aedes aegypti) the test unit consisted of 96-well-microtiter plates containing 200 μl of tap water per well and 5-15 freshly hatched A. aegypti larvae.
The active compounds were formulated using a solution containing 75% (v/v) water and 25% (v/v) DMSO. Different concentrations of formulated compounds or mixtures were sprayed onto the insect diet at 2.5 μl, using a custom built micro atomizer, at two replications.

[6] = test system: Orchid thrips (dichromothrips corbetti); assay: B.12 Orchid thrips (dichromothrips corbetti), floral-immersion technique; settings: adult thrips on dipped orchid petals, 72 hours after treatment, in comparison with untreated controls
Description: B.12 Orchid thrips (dichromothrips corbetti)
Dichromothrips corbetti adults used for bioassay were obtained from a colony maintained continuously under laboratory conditions. For testing purposes, the test compound is diluted in a 1:1 mixture of acetone:water (vol:vol), plus Kinetic HV at a rate of 0.01% v/v.
Thrips potency of each compound was evaluated by using a floral-immersion technique. All petals of individual, intact orchid flowers were dipped into treatment solution and allowed to dry in Petri dishes. Treated petals were placed into individual resealable plastic along with about 20 adult thrips. All test arenas were held under continuous light and a temperature of about 28° C. for duration of the assay. After 3 days, the numbers of live thrips were counted on each petal. The percent mortality was recorded 72 hours after treatment.

Cc1cccc(C)c1NC(=S)N/N=C/c1ccc2c(c1)sc1c2ncn1-c1ccc(OC(F)(F)F)cc1 [C-47, 1-(2,6-dimethylphenyl)-3-[(E)-[3-[4-(trifluoromethoxy)phenyl]benzothiopheno[2,3-d]imidazol-6-yl]methyleneamino]thiourea]
≥ 75%: mortality at 500 ppm [1] | mortality at 800 ppm [2] | mortality at 800 ppm [3] | mortality at 800 ppm [4] | mortality at 800 ppm [5]

FC(F)(F)Oc1ccc(-c2onc3c2CCc2cc(/C=N/NC(=S)Nc4c(Cl)cc(Cl)cc4Cl)ccc2-3)cc1 [C-9, 1-(2,4,6-trichlorophenyl)-3-[(E)-[3-[4-(trifluoromethoxy)phenyl]-4,5-dihydrobenzo[g][2,1]benzoxazol-7-yl]methyleneamino]thiourea]
≥ 75%: mortality at 800 ppm [3] | mortality at 500 ppm [6]

Cc1cccnc1NC(=S)N/N=C/c1ccc2c(ccc3c(-c4ccc(OC(F)(F)F)cc4)n(C)nc32)c1 [C-101, 1-(3-methyl-2-pyridyl)-3-[(E)-[2-methyl-3-[4-(trifluoromethoxy)phenyl]benzo[g]indazol-7-yl]methyleneamino]thiourea]
≥ 75%: mortality at 500 ppm [1] | mortality at 800 ppm [2] | mortality at 800 ppm [3] | mortality at 800 ppm [4] | mortality at 500 ppm [6]

CC(C)c1ccccc1N1C(=O)CS/C1=N\C(=O)Nc1ccc2c(ccc3c2ncn3-c2ccc(OC(F)(F)F)cc2)c1 [C-115, (1Z)-1-[3-(2-isopropylphenyl)-4-oxo-thiazolidin-2-ylidene]-3-[3-[4(trifluoromethoxy)phenyl]benzo[e]benzimidazol-7-yl]urea]
≥ 75%: mortality at 800 ppm [2] | mortality at 800 ppm [3] | mortality at 800 ppm [4] | mortality at 800 ppm [5]

FC(F)(F)Oc1ccc(-n2cnc3c4ccc(/C=N/NC(=S)Nc5ccccc5Cl)cc4ccc32)cc1 [C-30, 3-(2-chlorophenyl)-1-[[3-[4-(trifluoromethoxy)phenyl]-8H-benzo[e]benzimidazol-7-ylidene]methylimino] isothiourea]
≥ 75%: mortality at 500 ppm [1] | mortality at 500 ppm [6]

Cn1nc2c(ccc3cc(/C=N/NC(=S)Nc4c(Cl)cccc4Cl)ccc32)c1-c1ccc(OC(F)(F)F)cc1 [C-99, 1-(2,6-dichlorophenyl)-3-[(E)-[2-methyl-3-[4-(trifluoromethoxy)phenyl]benzo[g]indazol-7-yl]methyleneamino]thiourea]
≥ 75%: mortality at 800 ppm [2] | mortality at 800 ppm [3] | mortality at 800 ppm [4] | mortality at 500 ppm [6]

Cc1cccc(C)c1NC(=S)N/N=C/c1ccc2c(ccc3c2ncn3-c2ncc(C(F)(F)F)cc2Cl)c1 [C-112, 1-[[3-[3-chloro-5-(trifluoromethyl)-2-pyridyl]-3aH-benzo[e]benzimidazol-7-ylidene]methylimino]-3-(2,6-dimethylphenyl)thiourea]
≥ 75%: mortality at 800 ppm [2] | mortality at 800 ppm [3] | mortality at 800 ppm [4] | mortality at 800 ppm [5]

FC(F)(F)Oc1ccc(-n2cnc3c4ccc(/C=N/NC(=S)Nc5c(Br)cccc5Br)cc4ccc32)cc1 [C-66, 1-(2,6-dibromophenyl)-3-[(E)-[3-[4-(trifluoromethoxy)phenyl]benzo[e]benzimidazol-7-yl]methyleneamino] thiourea]
≥ 75%: mortality at 500 ppm [1] | mortality at 800 ppm [2] | mortality at 800 ppm [3] | mortality at 800 ppm [4] | mortality at 500 ppm [6]

CC(C)c1ccccc1N/C(S)=N/C(=O)Nc1ccc2c(ccc3c2ncn3-c2ccc(OC(F)(F)F)cc2)c1 [C-117, (1Z)-1-[(2-isopropylanilino)-sulfanyl-methylene]-3-[3-[4-(trifluoromethoxy)phenyl]benzo[e]benzimidazol-7-yl]urea]
≥ 75%: mortality at 800 ppm [2] | mortality at 800 ppm [3] | mortality at 800 ppm [4] | mortality at 800 ppm [5]

Cc1ccc(Cl)cc1NC(=S)N/N=C/c1ccc2c(ccc3c2ncn3-c2ccc(OC(F)(F)F)cc2)c1 [C-21, 1-(5-chloro-2-methyl-phenyl)-3-[(E)-[3-[4-(trifluoromethoxy)phenyl]benzo[e]benzimidazol-7-yl]methyleneamino] thiourea]
≥ 75%: mortality at 500 ppm [1] | mortality at 800 ppm [2] | mortality at 800 ppm [3] | mortality at 800 ppm [4] | mortality at 500 ppm [6]

CC(C)c1ccccc1NC(=S)N/N=C/c1ccc2c(ccc3c2ncn3-c2ccc(OC(F)(F)F)cc2)c1 [C-45, 1-(2-isopropylphenyl)-3-[[3-[4-(trifluoromethoxy)phenyl]-3aH-benzo[e]benzimidazol-7-ylidene]methylimino] thiourea]
≥ 75%: mortality at 500 ppm [1] | mortality at 800 ppm [2] | mortality at 800 ppm [3] | mortality at 800 ppm [4] | mortality at 500 ppm [6]

Cc1cc(Cl)ccc1NC(=S)N/N=C/c1ccc2c(ccc3c2ncn3-c2ccc(OC(F)(F)F)cc2)c1 [C-38, 1-(4-chloro-2-methyl-phenyl)-3-[(E)-[3-[4-(trifluoromethoxy)phenyl]benzo[e]benzimidazol-7-yl]methyleneamino] thiourea]
≥ 75%: mortality at 500 ppm [1] | mortality at 800 ppm [2] | mortality at 800 ppm [3] | mortality at 800 ppm [4] | mortality at 500 ppm [6]

FC(F)(F)Oc1ccc(-n2cnc3c4ccc(/C=N/NC(=S)Nc5ccccc5Br)cc4ccc32)cc1 [C-67, 1-(2-bromophenyl)-3-[[3-[4-(trifluoromethoxy)phenyl]-5H-benzo[e]benzimidazol-7-ylidene]methylimino] thiourea]
≥ 75%: mortality at 500 ppm [1] | mortality at 800 ppm [2] | mortality at 800 ppm [3] | mortality at 800 ppm [4]

CCc1cccc(C)c1NC(=S)N/N=C(\C)c1ccc2c(ccc3c2ncn3-c2ccc(OC(F)(F)F)cc2)c1 [C-82, 1-(2-ethyl-6-methyl-phenyl)-3-[(E)-1-[3-[4-(trifluoromethoxy)phenyl]benzo[e]benzimidazol-7-yl]ethylideneamino]thiourea]
≥ 75%: mortality at 500 ppm [1] | mortality at 500 ppm [6]

CCc1ccccc1NC(=S)N/N=C/c1ccc2c(ccc3c2cnn3-c2ccc(OC(F)(F)F)cc2)c1 [C-50, 1-(2-ethylphenyl)-3-[[3-[4-(trifluoromethoxy)phenyl]-5H-benzo[e]indazol-7-ylidene]methylimino]thiourea]
≥ 75%: mortality at 500 ppm [1] | mortality at 800 ppm [2] | mortality at 800 ppm [3] | mortality at 800 ppm [4]

Cc1cccc(C)c1NC(=S)N/N=C/c1ccc2c(ccc3c2cnn3-c2ccc(OC(F)(F)F)cc2)c1 [C-46, (E)-N-(2,6-dimethylphenyl)-2-((3-(4-(trifluoromethoxy)phenyl)-3H-benzo[e]indazol-7-yl)methylene)hydrazinecarbothioamide]
≥ 75%: mortality at 500 ppm [1] | mortality at 800 ppm [2] | mortality at 800 ppm [3] | mortality at 800 ppm [4]

FC(F)(F)Oc1ccc(-n2cnc3c4ccc(/C=N/NC(=S)Nc5c(Cl)cc(Cl)cc5Cl)cc4ccc32)cc1 [C-3, 1-(2,4,6-trichlorophenyl)-3-[(E)-[3-[4-(trifluoromethoxy)phenyl]benzo[e]benzimidazol-7-yl]methyleneamino] thiourea]
≥ 75%: mortality at 500 ppm [1] | mortality at 800 ppm [2] | mortality at 800 ppm [3] | mortality at 800 ppm [4]

Cc1cccc(C)c1NC(=S)N/N=C/c1ccc2c(ccc3c(-c4ccc(OC(F)(F)F)cc4)snc32)c1 [C-88, 1-(2,6-dimethylphenyl)-3-[(E)-[3-[4-(trifluoromethoxy)phenyl]benzo[g][2,1]benzothiazol-7-yl]methyleneamino] thiourea]
≥ 75%: mortality at 800 ppm [4] | mortality at 800 ppm [5]
